B1: U582403: tomato catechol O-methyltransferase from S. lycopersicum, SEQ ID NO: 3 (protein)
chain: MGSTANIQLATQSEDEERNCTYAMQLLSSSVLPFVLHSTIQLDVFDILAKDKAATKLSALEIVSHMPNCKNPDAATMLDRMLYVLASYSLLDCSVVEEGNGVTERRYGLSRVGKFFVRDEDGASMGPLLALLQDKVFINSWFELKDAVLEGGVPFDRVHGVHAFEYPKLDPKFNDVFNQAMINHTTVVMKRILENYKGFENLKTLVDVGGGLGVNLKMITSKYPTIKGTNFDLPHVVQHAPSYPGVDHVGGDMFESVPQGDAIFMKWILHDWSDGHCLKLLKNCHKALPDNGKVIVVEANLPVKPDTDTTVVGVSQCDLIMMAQNPGGKERSEQEFRALASEAGFKGVNLICCVCNFWVMEFYK
modifications: S. lycopersicum

How the values were obtained:
[1] = tested on: SIOMT1; assay: Substrate specificity assay of purified recombinant SIOMT1 with [14C]-AdoMet; assay type: biochemical, Solanum lycopersicum; conditions: 15 μM substrate, 30 min, 25°, products extracted with hexanes, scintillation counting
Method: FIG. 2 illustrates the chemical structure and relative activity of SIOMT1 on catechol and substrates with similar structure to catechol. Relative activity was determined by incubating purified SIOMT with excess amounts of [C^14]-AdoMet and […] of substrate. Products were extracted with hexanes and measured with a scintillation counter. Relative activity is expressed as a percentage of activity on catechol. 1=catechol; 2=guaiacol; 3=salicylic acid; 4=benzoic acid; 5=orcinol; 6=caffeic acid.
For substrate specificity assays, 5 μL purified enzyme was assayed at 25° in a 100 μL reaction containing 50 mM Tris-HCl, pH 7.5, 100 mM KCl, 2.8 mM BME, 15 μM substrate, 10 mM SAM, 0.4 mM [methyl-^14C] AdoMet (specific activity 50.4 mCi mmol^−1; Amersham). Substrates were diluted in 50% EtOH. Assays were done in triplicate, including boiled enzyme controls. After 30 min at 25° the reactions were stopped by adding equal volumes of hexanes. The methylated substrate was extracted on a vortex mixer for 15 sec and centrifuging at 13 200 g for 5 min. 50 μL of the organic layer was counted for 10 min in 3 ml Ready Gel Scintillation Fluid (Beckman Coulter, http://www.beckmancoulter.com). Counts for the boiled enzyme controls were subtracted from the sample counts, and activity for catechol was normalized to 100%. For the Km of catechol, procedures were the same as above, except for catechol concentrations. Concentrations used were: 0, 1, 5, 15, 25, and 50 μM.
To further test the specificity of SGN-U582403 (SIOMT1) for catechol, the activity of SIOMT1 on substrates with similar structure to catechol was measured. Purified protein was incubated with [^14C]-AdoMet and the following potential substrates: catechol, guaiacol, salicylic acid, benzoic acid, orcinol, or caffeic acid. Products were extracted with hexanes and measured with a scintillation counter.

[2] = tested on: tomato fruit pericarp discs; assay: Catechol feeding of tomato fruit pericarp discs, guaiacol by GC/MS; assay type: cell-based, Solanum lycopersicum cv. Flora-Dade; conditions: 10 μl of 1 M catechol per disc
Method: FIGS. 6A and 6B illustrate results of catechol feeding of tomato discs. Tomato fruit discs were made from the pericarp of Flora-Dade and SIOMT1OE ripe fruit and treated with water or catechol. Volatiles of the discs were collected after 5 h and analyzed using GC-MS. FIG. 6A illustrates the spectrum showing the guaiacol peak at 20.65 minutes. […] The table in FIG. 6B summarizes the differences in guaiacol production between Flora-Dade and SIOMT1OE.
Tomato discs were cut from pericarp tissue of ripe WT and SIOMT1 over-expressing fruit using a size 10 borer. A hundred discs were used for each sample treatment. Discs were placed in petri dishes and an X was cut in the top of each. 10 μl of either water or 1 M catechol dissolved in water was pipetted into each disc. Cover were place on petri dish and disc were left to incubate for 5 hr. Disc were then place in glass tube and volatiles were extracted as previously described. Guaiacol was quantified on GC/MS using a guaiacol standard curve.
Rather, low concentrations of catechol might limit the production of guaiacol in SIOMT1 plants. Thus, to further test this, catechol was fed to fruit pericarp discs of Flora-Dade (WT) and SIOMT1 over-expressing lines. Volatiles were collected after incubation for […]. Both WT and SIOMT1 discs produced increased guaiacol when fed catechol. […]

[3] = Initial screen: catechol added to E. coli cultures expressing candidate OMT, guaiacol production measured; assay type: cell-based, Solanum lycopersicum cv. M82; conditions: induced protein in E. coli cultures
Method: Potential S. lycopersicum catechol OMT candidates were selected by identification of genes with homology to previously characterized catechol and caffeic acid OMTs (FIG. 1). Five candidate genes were selected, SGN-U582403, SGN-U565623, SGN-U319245, SGN-U575022, and SGN-U321686. Full length cDNAs were synthesized from S. lycopersicum cv. M82 ripe fruit RNA. Candidate genes were cloned into pET160 plasmids for expression in E. coli. Initial screens were performed by adding catechol directly to bacterial cultures expressing induced protein and measuring guaiacol production.

| Molecule | activity of SIOMT1 on substrate relative to catechol [1] | guaiacol produced by catechol-fed discs relative to the unfed control ([2]; SIOMT1 over-expressing discs) | guaiacol produced by catechol-fed discs relative to the unfed control ([2]; WT (Flora-Dade) discs) | conversion of catechol to guaiacol by candidate OMT [3] |
| --- | --- | --- | --- | --- |
| Oc1ccccc1O [catechol] | preferentially methylated | 52 times | 36 times |  |
| O=C(O)/C=C/c1ccc(O)c(O)c1 [caffeic acid] | slight activity |  |  |  |
| Cc1cc(O)cc(O)c1 [orcinol] | slight activity |  |  |  |
| B1 |  |  |  | converted catechol to guaiacol |
